As usually defined, the IC50 is the concentration that gives 50% inhibition.

The text below walks through data of patent publication US10676479B2, “Imidazolepyridine compounds and uses thereof” (Novartis AG, priority 2016, dated 2020).

The target of one assay is EED (1-441)-His protein (Homo sapiens (Human), UniProt O75530). In words: EED-H3K27Me3 peptide competition binding assay by AlphaScreen. Conditions: EED Alphascreen binding Qualified assay. Here is the method:
Then 4 μL of detection beads mix was added to the plate and incubate in the dark at the rt for 1 h. The final concentration of donor and acceptor beads was 10 μg/mL for each. […] The data were then fit to a dose response equation using the program Helios (Novartis) to get the IC50 values. […] Sebaugh, J. […] Each compound was counter screened to determine if it interfered with the AlphaScreen beads. […] The plates were then incubated for 1 h at rt in dark before being read on EnVison.

Assay [1] concerns H3K27 methylation in G401 cell. Put plainly: ELISA (H3K27 methylation) assay. It counts as cell-based. Conditions: Homo sapiens, G-401, ELISA Qualified assay, 48 h, read-out: (c) IC50. The procedure:
ELISA (H3K27 Methylation) Assay
Representative compounds of the present invention were serially and separately diluted 3-fold in DMSO to obtain a total of eight or twelve concentrations. Then the compounds were added to G401 cell cultured in 384-well plate at 1:500 dilution to obtain the highest concentration of 20 μM. The cells were further cultured for 48 h before ELISA procedure.
ELISA protocol: Cell lysates were transferred to the wells of a 384-well plate and the final volume was adjusted to 50 μL per well with PBS. The plate was sealed, centrifuged at 2,000 rpm for 2 min and incubated at 4° C. for about 16 h. The plate was washed with TBST buffer (1×TBS (10×TBS: 24.2 g Tris (Sigma, T6066), 80 g NaCl (Sigma, S3014) to 1 L of water and adjust pH to 7.6 with HCl) with 0.1% Tween-20). Blocking buffer (TBST, 5% BSA; 50 μL per well) was added and the plate was incubated for 1 h at rt. The blocking buffer was removed and primary antibody was added (30 μL per well). […] The primary antibody was incubated in the plate at rt for 1 h. The wells were washed with TBST and incubated with secondary antibody for 1 h at rt. […] After 1 h of incubation at rt, the wells were washed with TBST. […] The signal was read using a PerkinElmer Envision Reader. The H3K27 methylation readouts were normalized using H3 signal and then percentage inhibition was calculated against the samples treated with DMSO. The data were then fit to a dose response curve using the program Helios to get the IC50 values of the test compound.
(An ELISA detects its analyte on a solid surface through an enzyme-linked reagent.)

Assay [2] addresses wild type PRC2 (wtPRC2) complex (Homo sapiens (Human), UniProt O75530). Put plainly: EED LC-MS assay. Format: biochemical. Conditions: EED LC-MS Qualified assay; read-out: (b) IC50. Here is the method: EED LC-MS Assay Representative compounds of the present invention were serially and separately diluted 3-fold in DMSO to obtain a total of eight or twelve concentrations. […] A 6 μL solution of 3 μM of the peptide substrate H3K27Me0 (histone H3[21-44]-biotin) in reaction buffer was added to initiate each reaction. […] The data were then fit to a dose response equation using the program Helios to get the IC50 values of the test compound.

EED (1-441)-His protein, sequence (O75530 whole entry): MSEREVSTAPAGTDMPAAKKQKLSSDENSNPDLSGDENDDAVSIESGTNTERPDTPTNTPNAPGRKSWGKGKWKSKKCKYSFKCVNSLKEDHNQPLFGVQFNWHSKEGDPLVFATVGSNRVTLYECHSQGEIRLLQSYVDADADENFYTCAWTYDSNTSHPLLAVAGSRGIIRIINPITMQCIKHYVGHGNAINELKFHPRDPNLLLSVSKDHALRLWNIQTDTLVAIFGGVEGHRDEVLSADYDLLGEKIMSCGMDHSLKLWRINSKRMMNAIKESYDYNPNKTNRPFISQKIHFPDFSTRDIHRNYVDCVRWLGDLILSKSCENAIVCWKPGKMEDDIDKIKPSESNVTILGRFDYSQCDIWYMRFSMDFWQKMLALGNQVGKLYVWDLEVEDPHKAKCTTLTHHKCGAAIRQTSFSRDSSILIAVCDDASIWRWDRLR
wild type PRC2 (wtPRC2) complex, sequence (O75530 whole entry): as above
wild type PRC2 (wtPRC2) complex, sequence (Q15910 whole entry partner): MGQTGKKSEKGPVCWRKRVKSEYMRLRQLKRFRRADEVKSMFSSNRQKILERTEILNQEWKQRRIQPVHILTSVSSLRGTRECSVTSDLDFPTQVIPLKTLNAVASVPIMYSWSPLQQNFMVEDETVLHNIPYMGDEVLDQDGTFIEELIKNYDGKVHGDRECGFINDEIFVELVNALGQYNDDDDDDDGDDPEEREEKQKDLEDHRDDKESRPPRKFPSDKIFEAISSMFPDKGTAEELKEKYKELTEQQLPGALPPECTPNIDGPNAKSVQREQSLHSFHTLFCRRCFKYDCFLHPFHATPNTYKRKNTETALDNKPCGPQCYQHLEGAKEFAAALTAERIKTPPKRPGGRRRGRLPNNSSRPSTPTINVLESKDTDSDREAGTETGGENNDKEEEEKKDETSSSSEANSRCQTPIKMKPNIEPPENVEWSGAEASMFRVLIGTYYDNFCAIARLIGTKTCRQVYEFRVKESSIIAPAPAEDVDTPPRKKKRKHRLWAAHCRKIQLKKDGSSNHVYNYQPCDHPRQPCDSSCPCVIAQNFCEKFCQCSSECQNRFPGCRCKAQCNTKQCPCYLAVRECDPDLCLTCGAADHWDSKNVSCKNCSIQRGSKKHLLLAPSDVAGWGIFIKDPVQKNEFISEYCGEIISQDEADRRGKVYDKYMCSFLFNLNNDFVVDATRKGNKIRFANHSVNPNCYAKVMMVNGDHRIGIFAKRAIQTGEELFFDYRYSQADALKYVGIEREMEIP
wild type PRC2 (wtPRC2) complex, sequence (Q15022 whole entry partner): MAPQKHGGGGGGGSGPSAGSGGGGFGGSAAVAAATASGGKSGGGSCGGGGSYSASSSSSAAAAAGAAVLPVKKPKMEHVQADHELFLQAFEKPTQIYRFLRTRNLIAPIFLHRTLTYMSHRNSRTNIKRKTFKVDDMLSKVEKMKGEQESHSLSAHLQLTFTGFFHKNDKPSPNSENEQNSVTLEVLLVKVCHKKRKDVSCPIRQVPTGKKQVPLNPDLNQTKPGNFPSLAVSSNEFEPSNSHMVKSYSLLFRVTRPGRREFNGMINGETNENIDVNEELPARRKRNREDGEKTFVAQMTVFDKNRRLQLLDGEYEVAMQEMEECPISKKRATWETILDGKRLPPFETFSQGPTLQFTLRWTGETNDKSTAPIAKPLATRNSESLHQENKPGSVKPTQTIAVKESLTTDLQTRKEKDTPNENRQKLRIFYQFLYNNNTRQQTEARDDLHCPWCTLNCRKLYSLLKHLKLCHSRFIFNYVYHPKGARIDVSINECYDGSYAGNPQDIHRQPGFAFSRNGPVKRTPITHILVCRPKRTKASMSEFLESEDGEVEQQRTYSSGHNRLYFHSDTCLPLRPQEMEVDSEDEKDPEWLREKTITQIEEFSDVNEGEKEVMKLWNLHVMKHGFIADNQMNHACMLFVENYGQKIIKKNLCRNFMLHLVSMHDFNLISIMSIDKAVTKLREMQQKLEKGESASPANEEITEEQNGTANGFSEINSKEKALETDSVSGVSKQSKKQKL

As for `CN(C)S(=O)(=O)c1ccc(-c2cnc(NCc3c(F)ccc4c3CCO4)n3cncc23)cc1` [Example 18, 4-(5-(((5-fluoro-2,3-dihydrobenzofuran-4-yl)methyl)amino)imidazo[1,5-c]pyrimidin-8-yl)-N,N-dimethylbenzenesulfonamide], the results for the IC50 (at EED (1-441)-His protein; in assay [1]; in assay [2]) were 10.1 nM, 46 nM and 15.1 nM, respectively.
`CS(=O)(=O)c1ccc(-c2cnc(NCc3c(F)ccc4c3CCO4)n3cncc23)cc1` [Example 19, N-((5-fluoro-2,3-dihydrobenzofuran-4-yl)methyl)-8-(4-(methylsulfonyl)phenyl)imidazo[1,5-c]pyrimidin-5-amine]: the IC50 on EED (1-441)-His protein stood at 8.5 nM; in assay [1], 60.1 nM; in assay [2], 10.4 nM.
In the same order, the values of `Fc1ccc2c(c1CNc1ncc(-c3ccncc3)c3cncn13)CCO2` [Example 20, N-((5-fluoro-2,3-dihydrobenzofuran-4-yl)methyl)-8-(pyridin-4-yl)imidazo[1,5-c]pyrimidin-5-amine] are 21.2 nM, 81.1 nM and 44.1 nM.
For the molecule `Fc1ccc2c(c1CNc1ncc(-c3cccnc3F)c3cncn13)CCO2` [Example 21, N-((5-fluoro-2,3-dihydrobenzofuran-4-yl)methyl)-8-(2-fluoropyridin-3-yl)imidazo[1,5-c]pyrimidin-5-amine], the IC50 at EED (1-441)-His protein was 19.5 nM; in assay [1], 35.4 nM; in assay [2] it was 21.7 nM.
The corresponding values for `CS(=O)(=O)c1ccc(-c2cnc(NCc3c(F)ccc4c3CCO4)n3cncc23)cn1` [Example 22, N-((5-fluoro-2,3-dihydrobenzofuran-4-yl)methyl)-8-(6-(methylsulfonyl)pyridin-3-yl)imidazo[1,5-c]pyrimidin-5-amine] are 5.5 nM, 56.3 nM and 9.8 nM.
In the same order, the values of `NS(=O)(=O)c1ccc(-c2cnc(NCc3c(F)ccc4c3CCO4)n3cncc23)cc1` [Example 23, 4-(5-(((5-fluoro-2,3-dihydrobenzofuran-4-yl)methyl)amino)imidazo[1,5-c]pyrimidin-8-yl)benzenesulfonamide] are 12.7 nM, 33.6 nM and 12.9 nM.
In the same order, the values of `Cc1cc(-c2cnc(NCc3c(F)ccc4c3CCO4)n3cncc23)ccn1` [Example 24, N-((5-fluoro-2,3-dihydrobenzofuran-4-yl)methyl)-8-(2-methylpyridin-4-yl)imidazo[1,5-c]pyrimidin-5-amine] are 20.9 nM, 52.1 nM and 26.5 nM.
On to `CN1CCc2ccc(-c3cnc(NCc4c(F)ccc5c4CCO5)n4cncc34)cc2C1` [Example 26, N-((5-fluoro-2,3-dihydrobenzofuran-4-yl)methyl)-8-(2-methyl-1,2,3,4-tetrahydroisoquinolin-7-yl)imidazo[1,5-c]pyrimidin-5-amine], for which the values for the IC50 (on EED (1-441)-His protein; in assay [1]; in assay [2]) were 50.3 nM, 54.1 nM and 41.5 nM, respectively.
The corresponding values for `CS(=O)(=O)c1cccc(-c2cnc(NCc3c(F)ccc4c3CCO4)n3cncc23)c1` [Example 27, N-((5-fluoro-2,3-dihydrobenzofuran-4-yl)methyl)-8-(3-(methylsulfonyl)phenyl)imidazo[1,5-c]pyrimidin-5-amine] are 24.1 nM, 43 nM and 23.5 nM.
The corresponding values for `Fc1ccc2c(c1CNc1ncc(-c3cccnc3)c3cncn13)CCO2` [Example 28, N-((5-fluoro-2,3-dihydrobenzofuran-4-yl)methyl)-8-(pyridin-3-yl)imidazo[1,5-c]pyrimidin-5-amine] are 19.9 nM, 50.6 nM and 21.8 nM.
In the same order, the values of `CS(=O)(=O)Nc1ccc(-c2cnc(NCc3c(F)ccc4c3CCO4)n3cncc23)cc1` [Example 29, N-(4-(5-(((5-fluoro-2,3-dihydrobenzofuran-4-yl)methyl)amino)imidazo[1,5-c]pyrimidin-8-yl)phenyl)methanesulfonamide] are 37.5 nM, 73.4 nM and 32.9 nM.
With `CC(C)S(=O)(=O)c1ccc(-c2cnc(NCc3c(F)ccc4c3CCO4)n3cncc23)cc1` [Example 30, N-((5-fluoro-2,3-dihydrobenzofuran-4-yl)methyl)-8-(4-(isopropylsulfonyl)phenyl)imidazo[1,5-c]pyrimidin-5-amine], the 50% inhibitory concentration (IC50) stood at 7.7 nM at EED (1-441)-His protein, 19.5 nM in assay [1] and 11.1 nM in assay [2].
The corresponding values for `N#Cc1ccc(-c2cnc(NCc3c(F)ccc4c3CCO4)n3cncc23)cn1` [Example 31, 5-(5-(((5-fluoro-2,3-dihydrobenzofuran-4-yl)methyl)amino)imidazo[1,5-c]pyrimidin-8-yl)picolinonitrile] are 14.4 nM, 39.9 nM and 20.9 nM.
The corresponding values for `CN(C)CCc1ccc(-c2cnc(NCc3c(F)ccc4c3CCO4)n3cncc23)cn1` [Example 32, 8-(6-(2-(dimethylamino)ethyl)pyridin-3-yl)-N-((5-fluoro-2,3-dihydrobenzofuran-4-yl)methyl)imidazo[1,5-c]pyrimidin-5-amine] are 8.7 nM, 40.4 nM and 24.7 nM.
In the same order, the values of `Cn1nccc1-c1cnc(NCc2c(F)ccc3c2CCO3)n2cncc12` [Example 33, N-((5-fluoro-2,3-dihydrobenzofuran-4-yl)methyl)-8-(1-methyl-1H-pyrazol-5-yl)imidazo[1,5-c]pyrimidin-5-amine] are 7.5 nM, 22.1 nM and 15.9 nM.
Turning to `OCCc1ccc(-c2cnc(NCc3c(F)ccc4c3CCO4)n3cncc23)cn1` [Example 34, 2-(5-(5-(((5-fluoro-2,3-dihydrobenzofuran-4-yl)methyl)amino)imidazo[1,5-c]pyrimidin-8-yl)pyridin-2-yl)ethan-1-ol], the concentration for half-maximal inhibition (IC50) is 21.7 nM at EED (1-441)-His protein, 59.5 nM in assay [1] and 40.1 nM in assay [2].
In the same order, the values of `Fc1cc(-c2cnc(NCc3c(F)ccc4c3CCO4)n3cncc23)ccn1` [Example 35, N-((5-fluoro-2,3-dihydrobenzofuran-4-yl)methyl)-8-(2-fluoropyridin-4-yl)imidazo[1,5-c]pyrimidin-5-amine] are 15.5 nM, 74.4 nM and 26 nM.
The corresponding values for `Cc1cnccc1-c1cnc(NCc2c(F)ccc3c2CCO3)n2cncc12` [Example 36, N-((5-fluoro-2,3-dihydrobenzofuran-4-yl)methyl)-8-(3-methylpyridin-4-yl)imidazo[1,5-c]pyrimidin-5-amine] are 7.6 nM, 51.3 nM and 17.9 nM.
With `O=C(c1ccc(-c2cnc(NCc3c(F)ccc4c3CCO4)n3cncc23)cc1)N1CCCC1` [Example 37, (4-(5-(((5-fluoro-2,3-dihydrobenzofuran-4-yl)methyl)amino)imidazo[1,5-c]pyrimidin-8-yl)phenyl)(pyrrolidin-1-yl)methanone], the figures for the IC50 (on EED (1-441)-His protein; in assay [1]; in assay [2]) were 16.2 nM, 81.9 nM and 41.9 nM, respectively.
The corresponding values for `Cc1nc(S(C)(=O)=O)ccc1-c1cnc(NCc2c(F)ccc3c2CCO3)n2cncc12` [Example 38, N-((5-fluoro-2,3-dihydrobenzofuran-4-yl)methyl)-8-(2-methyl-6-(methylsulfonyl)pyridin-3-yl)imidazo[1,5-c]pyrimidin-5-amine] are 9.4 nM, 47.7 nM and 20.8 nM.
In the same order, the values of `Fc1ccc2c(c1CNc1ncc(-c3ccc(CN4CCCC4)cc3)c3cncn13)CCO2` [Example 39, N-((5-fluoro-2,3-dihydrobenzofuran-4-yl)methyl)-8-(4-(pyrrolidin-1-ylmethyl)phenyl)imidazo[1,5-c]pyrimidin-5-amine] are 10.5 nM, 31 nM and 10.1 nM.
The corresponding values for `CN1CCN(c2ccc(-c3cnc(NCc4c(F)ccc5c4CCO5)n4cncc34)cn2)CC1` [Example 40, N-((5-fluoro-2,3-dihydrobenzofuran-4-yl)methyl)-8-(6-(4-methylpiperazin-1-yl)pyridin-3-yl)imidazo[1,5-c]pyrimidin-5-amine] are 17.7 nM, 66 nM and 28.2 nM.
